Data taken from paper PMC6099940, “Design, Synthesis and Biological Evaluation of Novel Phenylsulfonylurea Derivatives as PI3K/mTOR Dual Inhibitors” (Molecules : A Journal of Synthetic Chemistry and Natural …, 2018).
Read-outs that look alike come from different tables or passages of the source.

Tests used:
PC-3 = experiment: In vitro cytotoxicity, MTT assay, PC-3; format: cell-based; details: PC-3 cells, 72 h, average of two separate determinations
HepG-2 = experiment: In vitro cytotoxicity, MTT assay, HepG-2; format: cell-based; details: 72 h, average of two separate determinations
A549 = experiment: In vitro cytotoxicity, MTT assay, A549; format: cell-based; details: A549 cells, 72 h, average of two separate determinations
MCF-7 = experiment: In vitro cytotoxicity, MTT assay, MCF-7; format: cell-based; details: MCF-7 cells
mTOR = mTOR (Homo sapiens, UniProt P42345); experiment: mTOR kinase assay (Kinase-Glo Luminescent Kinase Assay); format: biochemical; details: 10 µM ATP, 60 min, average of two determinations
PI3Kα = PI3Kα (Homo sapiens, UniProt P42336); experiment: PI3Kα kinase assay (Kinase-Glo Luminescent Kinase Assay); format: biochemical; details: 1 µM ATP, 60 min, average of two determinations
[1] = Homo sapiens, HepG2, HepG-2 cells
[2] = Homo sapiens, MCF7, MTT, 72 h, average of two separate determinations, read-out: IC50 (µM) MCF-7

PI3Kα, sequence (P42336 whole entry): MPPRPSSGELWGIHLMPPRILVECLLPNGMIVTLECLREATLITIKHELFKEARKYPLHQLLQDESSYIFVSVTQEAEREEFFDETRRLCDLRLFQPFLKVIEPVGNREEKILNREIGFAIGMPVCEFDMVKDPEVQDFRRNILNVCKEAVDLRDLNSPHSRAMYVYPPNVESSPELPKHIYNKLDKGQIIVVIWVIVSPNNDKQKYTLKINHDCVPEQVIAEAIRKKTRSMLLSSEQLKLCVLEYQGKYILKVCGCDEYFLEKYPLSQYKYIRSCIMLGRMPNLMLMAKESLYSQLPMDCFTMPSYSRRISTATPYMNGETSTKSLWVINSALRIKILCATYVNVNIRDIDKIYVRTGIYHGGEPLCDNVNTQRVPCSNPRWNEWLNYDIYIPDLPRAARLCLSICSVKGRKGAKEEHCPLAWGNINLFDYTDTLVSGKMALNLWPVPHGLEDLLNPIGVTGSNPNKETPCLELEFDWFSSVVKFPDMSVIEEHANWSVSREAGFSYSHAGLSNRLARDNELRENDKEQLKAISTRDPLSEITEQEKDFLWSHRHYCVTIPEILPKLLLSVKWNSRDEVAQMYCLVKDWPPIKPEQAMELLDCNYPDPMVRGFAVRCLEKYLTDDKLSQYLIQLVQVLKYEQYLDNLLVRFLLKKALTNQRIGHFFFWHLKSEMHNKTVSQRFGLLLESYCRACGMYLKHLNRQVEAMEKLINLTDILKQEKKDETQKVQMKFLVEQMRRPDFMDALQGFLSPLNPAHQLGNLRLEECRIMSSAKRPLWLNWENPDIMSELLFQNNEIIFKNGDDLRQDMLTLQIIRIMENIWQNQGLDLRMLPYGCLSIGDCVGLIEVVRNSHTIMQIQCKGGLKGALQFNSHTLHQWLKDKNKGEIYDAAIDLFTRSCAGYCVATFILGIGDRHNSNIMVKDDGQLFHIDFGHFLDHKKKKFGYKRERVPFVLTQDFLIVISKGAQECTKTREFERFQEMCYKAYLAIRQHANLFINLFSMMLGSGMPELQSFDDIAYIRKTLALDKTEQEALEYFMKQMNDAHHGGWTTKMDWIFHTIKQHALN
PI3Kα, sequence (P27986 whole entry partner): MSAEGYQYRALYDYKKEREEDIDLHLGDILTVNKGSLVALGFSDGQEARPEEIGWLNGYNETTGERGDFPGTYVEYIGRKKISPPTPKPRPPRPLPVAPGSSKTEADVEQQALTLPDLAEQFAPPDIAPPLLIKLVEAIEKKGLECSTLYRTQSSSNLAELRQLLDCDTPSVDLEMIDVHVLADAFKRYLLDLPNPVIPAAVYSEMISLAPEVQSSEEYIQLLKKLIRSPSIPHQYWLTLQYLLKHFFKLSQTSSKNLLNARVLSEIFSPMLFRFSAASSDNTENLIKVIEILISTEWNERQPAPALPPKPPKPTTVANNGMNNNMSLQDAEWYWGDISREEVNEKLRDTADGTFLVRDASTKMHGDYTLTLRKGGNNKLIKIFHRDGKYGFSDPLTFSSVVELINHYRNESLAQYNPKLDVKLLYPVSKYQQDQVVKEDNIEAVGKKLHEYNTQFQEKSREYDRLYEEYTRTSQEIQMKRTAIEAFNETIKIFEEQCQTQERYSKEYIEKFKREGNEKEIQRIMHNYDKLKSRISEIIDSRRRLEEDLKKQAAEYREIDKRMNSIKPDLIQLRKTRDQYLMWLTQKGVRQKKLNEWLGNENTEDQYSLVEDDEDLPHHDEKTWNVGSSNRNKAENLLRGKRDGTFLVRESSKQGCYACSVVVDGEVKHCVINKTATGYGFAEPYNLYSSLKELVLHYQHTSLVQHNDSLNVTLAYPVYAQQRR

COc1ccc(Nc2c(NC(=O)NS(=O)(=O)c3ccc(C)cc3)cnc3ccc(Br)cc23)cc1 [20c, N-((6-Bromo-4-((4-methoxyphenyl)amino)quinolin-3-yl)carbamoyl)-4-methylbenzenesulfonamide]
IC50 (PC-3; Homo sapiens): > 100 µM | IC50 (HepG-2; [1]): 26.8 ± 1.22 µM | IC50 (A549; Homo sapiens): 23.4 ± 1.12 µM | melting point: 279.2 to 280.6 °C | IC50 (MCF-7; [2]): 4.94 ± 0.64 µM

COc1ccc(Nc2c(NC(=O)NS(=O)(=O)c3ccc(C(C)(C)C)cc3)c(C)nc3ccc(OC)cc23)cc1 [23b, 4-(tert-Butyl)-N-((6-methoxy-4-((4-methoxyphenyl)amino)-2-methylquinolin-3-yl)carbamoyl)benzenesulfonamide]
IC50 (PC-3; Homo sapiens): > 100 µM | IC50 (mTOR): > 10 µM | IC50 (PI3Kα): > 10 µM | IC50 (HepG-2; [1]): 2.71 ± 0.43 µM | IC50 (A549; Homo sapiens): 7.47 ± 0.87 µM | melting point: 291.2 to 292.7 °C | IC50 (MCF-7; [2]): 6.55 ± 0.81 µM

O=C(Nc1cnc2ccc(Br)cc2c1Nc1ccc(Br)cc1)NS(=O)(=O)c1ccc(F)cc1 [21a, N-((6-Bromo-4-((4-bromophenyl)amino)quinolin-3-yl)carbamoyl)-4-fluorobenzenesulfonamide]
IC50 (PC-3; Homo sapiens): > 100 µM | IC50 (HepG-2; [1]): 45.7 ± 1.66 µM | IC50 (A549; Homo sapiens): 59 ± 1.76 µM | melting point: 278.7 to 279.5 °C | IC50 (MCF-7; [2]): 37.6 ± 1.57 µM

Cn1c(=O)n(-c2ccc(C(C)(C)C#N)cc2)c2c3cc(-c4cnc5ccccc5c4)ccc3ncc21 [NVP-BEZ235, reference compound]
IC50 (PC-3; Homo sapiens): 0.2 ± 0.11 µM | IC50 (HepG-2; [1]): 0.54 ± 0.83 µM | IC50 (A549; Homo sapiens): 0.36 ± 0.86 µM | IC50 (MCF-7; [2]): 0.14 ± 0.1 µM

Cc1ccc(S(=O)(=O)NC(=O)Nc2cnc3ccc(Br)cc3c2Nc2ccc(F)c(Cl)c2)cc1 [22c, N-((6-Bromo-4-((3-chloro-4-fluorophenyl)amino)quinolin-3-yl)carbamoyl)-4-methylbenzenesulfonamide]
IC50 (PC-3; Homo sapiens): 16.7 ± 0.88 µM | IC50 (HepG-2; [1]): 11.3 ± 0.84 µM | IC50 (A549; Homo sapiens): > 100 µM | melting point: 278.7 to 279.9 °C | IC50 (MCF-7; [2]): 16.8 ± 1.22 µM

Cc1ccc(S(=O)(=O)NC(=O)Nc2cnc3ccc(Br)cc3c2Nc2ccc(C(C)(C)C#N)cc2)cc1 [19c, N-((6-Bromo-4-((4-(2-cyanopropan-2-yl)phenyl)amino)quinolin-3-yl)carbamoyl)-4-methylbenzenesulfonamide]
IC50 (PC-3; Homo sapiens): 40.6 ± 1.11 µM | IC50 (HepG-2; [1]): 31.2 ± 1.5 µM | IC50 (A549; Homo sapiens): 29 ± 1.31 µM | melting point: 289.2 to 290.4 °C | IC50 (MCF-7; [2]): 3.96 ± 0.59 µM

COc1ccc(Nc2c(NC(=O)NS(=O)(=O)c3ccc(Cl)cc3)c(C)nc3ccc(OC)cc23)cc1 [23a, 4-Chloro-N-((6-methoxy-4-((4-methoxyphenyl)amino)-2-methylquinolin-3-yl)carbamoyl)benzenesulfonamide]
IC50 (PC-3; Homo sapiens): > 100 µM | IC50 (HepG-2; [1]): 16 ± 1.1 µM | IC50 (A549; Homo sapiens): 39.8 ± 1.59 µM | melting point: 290.8 to 291.2 °C | IC50 (MCF-7; [2]): 6.3 ± 0.79 µM

COc1ccc2nc(C)c(NC(=O)NS(=O)(=O)c3ccc(F)cc3)c(Nc3ccc(Br)cc3)c2c1 [23c, N-((4-((4-Bromophenyl)amino)-6-methoxy-2-methylquinolin-3-yl)carbamoyl)-4-fluorobenzenesulfonamide]
IC50 (PC-3; Homo sapiens): 39.8 ± 1.25 µM | IC50 (HepG-2; [1]): 32.1 ± 1.12 µM | IC50 (A549; Homo sapiens): 13 ± 0.84 µM | melting point: 356.1 to 357.3 °C | IC50 (MCF-7; [2]): 25.4 ± 1.43 µM

CC(C)(C)c1ccc(S(=O)(=O)NC(=O)Nc2cnc3ccc(Br)cc3c2Nc2ccc(F)c(Cl)c2)cc1 [22d, N-((6-Bromo-4-((3-chloro-4-fluorophenyl)amino)quinolin-3-yl)carbamoyl)-4-(tert-butyl)benzenesulfonamide]
IC50 (PC-3; Homo sapiens): 29.3 ± 2.23 µM | IC50 (HepG-2; [1]): 28.4 ± 0.89 µM | IC50 (A549; Homo sapiens): 22.4 ± 1.21 µM | melting point: 290.1 to 291.6 °C | IC50 (MCF-7; [2]): 46.3 ± 1.67 µM

CC(C)(C#N)c1ccc(Nc2c(NC(=O)NS(=O)(=O)c3ccc(F)cc3)cnc3ccc(Br)cc23)cc1 [19a, N-((6-Bromo-4-((4-(2-cyanopropan-2-yl)phenyl)amino)quinolin-3-yl)carbamoyl)-4-fluorobenzenesulfonamide carboxamide]
IC50 (PC-3): 66.6 ± 1.28 µM | IC50 (mTOR): 2.62 µM | IC50 (PI3Kα): 0.72 µM | IC50 (HepG-2; HepG-2 cells): 33.3 ± 1.52 µM | IC50 (A549): 38.5 ± 1.04 µM | IC50 (MCF-7; MTT, 72 h, average of two separate determinations, read-out: IC50 (µM) MCF-7): 3.88 ± 0.58 µM | IC50 (MCF-7; read-out: IC50 value against MCF-7 cell (conclusions text, unit inferred)): 2.88 ± 0.58 µM

O=C(Nc1cnc2ccc(Br)cc2c1Nc1ccc(F)c(Cl)c1)NS(=O)(=O)c1ccc(Cl)cc1 [22b, N-((6-Bromo-4-((3-chloro-4-fluorophenyl)amino)quinolin-3-yl)carbamoyl)-4-chlorobenzenesulfonamide]
IC50 (PC-3; Homo sapiens): 17.7 ± 0.95 µM | IC50 (HepG-2; [1]): 6.44 ± 0.89 µM | IC50 (A549; Homo sapiens): > 100 µM | melting point: 282.3 to 283.7 °C | IC50 (MCF-7; [2]): 6.84 ± 0.83 µM

CC(C)(C)c1ccc(S(=O)(=O)NC(=O)Nc2cnc3ccc(Br)cc3c2Nc2ccc(Br)cc2)cc1 [21d, N-((6-Bromo-4-((4-bromophenyl)amino)quinolin-3-yl)carbamoyl)-4-(tert-butyl)benzenesulfonamide]
IC50 (PC-3; Homo sapiens): > 100 µM | IC50 (HepG-2; [1]): 17 ± 1.22 µM | IC50 (A549; Homo sapiens): 16.2 ± 1.2 µM | melting point: 259.4 to 260.3 °C | IC50 (MCF-7; [2]): 52.7 ± 1.72 µM

CC(C)(C)c1ccc(S(=O)(=O)NC(=O)Nc2cnc3ccc(Br)cc3c2Nc2ccc(C(C)(C)C#N)cc2)cc1 [19d, N-((6-Bromo-4-((4-(2-cyanopropan-2-yl)phenyl)amino)quinolin-3-yl)carbamoyl)-4-(tert-butyl)benzenesulfonamide]
IC50 (PC-3; Homo sapiens): 68.2 ± 1.32 µM | IC50 (HepG-2; [1]): > 100 µM | IC50 (A549; Homo sapiens): 30.6 ± 1.45 µM | melting point: 287.2 to 288.4 °C | IC50 (MCF-7; [2]): 9.95 ± 0.99 µM

COc1ccc(Nc2c(NC(=O)NS(=O)(=O)c3ccc(Cl)cc3)cnc3ccc(Br)cc23)cc1 [20b, N-((6-Bromo-4-((4-methoxyphenyl)amino)quinolin-3-yl)carbamoyl)-4-chlorobenzenesulfonamide]
IC50 (PC-3; Homo sapiens): > 100 µM | IC50 (HepG-2; [1]): 22.6 ± 1.12 µM | IC50 (A549; Homo sapiens): 30.2 ± 1.23 µM | melting point: 282.2 to 283.1 °C | IC50 (MCF-7; [2]): 10.7 ± 0.97 µM

O=C(Nc1cnc2ccc(Br)cc2c1Nc1ccc(Br)cc1)NS(=O)(=O)c1ccc(Cl)cc1 [21b, N-((6-Bromo-4-((4-bromophenyl)amino)quinolin-3-yl)carbamoyl)-4-chlorobenzenesulfonamide]
IC50 (PC-3; Homo sapiens): > 100 µM | IC50 (HepG-2; [1]): 11.1 ± 1.04 µM | IC50 (A549; Homo sapiens): 71.1 ± 1.85 µM | melting point: 284.1 to 285.4 °C | IC50 (MCF-7; [2]): 13.8 ± 1.14 µM

CC(C)(C#N)c1ccc(Nc2c(NC(=O)NS(=O)(=O)c3ccc(Cl)cc3)cnc3ccc(Br)cc23)cc1 [19b, N-((6-Bromo-4-((4-(2-cyanopropan-2-yl)phenyl)amino)quinolin-3-yl)carbamoyl)-4-chlorobenzenesulfonamide]
IC50 (PC-3; Homo sapiens): 34.3 ± 1.32 µM | IC50 (HepG-2; [1]): 30.2 ± 1.45 µM | IC50 (A549; Homo sapiens): > 100 µM | melting point: 279.2 to 280.1 °C | IC50 (MCF-7; [2]): 15.1 ± 1.1 µM

Cc1ccc(S(=O)(=O)NC(=O)Nc2cnc3ccc(Br)cc3c2Nc2ccc(Br)cc2)cc1 [21c, N-((6-Bromo-4-((4-bromophenyl)amino)quinolin-3-yl)carbamoyl)-4-methylbenzenesulfonamide]
IC50 (PC-3; Homo sapiens): > 100 µM | IC50 (HepG-2; [1]): 31.1 ± 1.49 µM | IC50 (A549; Homo sapiens): 22.7 ± 1.35 µM | melting point: 279.6 to 280.2 °C | IC50 (MCF-7; [2]): 16.6 ± 1.22 µM

COc1ccc(Nc2c(NC(=O)NS(=O)(=O)c3ccc(F)cc3)cnc3ccc(Br)cc23)cc1 [20a, N-((6-Bromo-4-((4-methoxyphenyl)amino)quinolin-3-yl)carbamoyl)-4-fluorobenzenesulfonamide]
IC50 (PC-3; Homo sapiens): > 100 µM | IC50 (HepG-2; [1]): 20.3 ± 1.04 µM | IC50 (A549; Homo sapiens): 26.3 ± 1.13 µM | melting point: 289.1 to 290.2 °C | IC50 (MCF-7; [2]): 7.65 ± 0.88 µM

O=C(Nc1cnc2ccc(Br)cc2c1Nc1ccc(F)c(Cl)c1)NS(=O)(=O)c1ccc(F)cc1 [22a, N-((6-Bromo-4-((3-chloro-4-fluorophenyl)amino)quinolin-3-yl)carbamoyl)-4-fluorobenzenesulfonamide]
IC50 (PC-3; Homo sapiens): 52.5 ± 1.03 µM | IC50 (HepG-2; [1]): 19.63 ± 0.18 µM | IC50 (A549; Homo sapiens): 12 ± 0.91 µM | melting point: 295.1 to 296.3 °C | IC50 (MCF-7; [2]): 22.8 ± 1.35 µM

COc1ccc(Nc2c(NC(=O)NS(=O)(=O)c3ccc(C(C)(C)C)cc3)cnc3ccc(Br)cc23)cc1 [20d, N-((6-Bromo-4-((4-methoxyphenyl)amino)quinolin-3-yl)carbamoyl)-4-(tert-butyl)benzenesulfonamide]
IC50 (PC-3; Homo sapiens): > 100 µM | IC50 (HepG-2; [1]): 33.2 ± 1.26 µM | IC50 (A549; Homo sapiens): 32.1 ± 1.18 µM | melting point: 263.3 to 264.2 °C | IC50 (MCF-7; [2]): 10.5 ± 0.98 µM

COc1ccc2nc(C)c(NC(=O)NS(=O)(=O)c3ccc(F)cc3)c(Nc3ccc(F)c(Cl)c3)c2c1 [23d, N-((4-((3-Chloro-4-fluorophenyl)amino)-6-methoxy-2-methylquinolin-3-yl)carbamoyl)-4-fluorobenzenesulfonamide]
IC50 (PC-3; Homo sapiens): 57.9 ± 0.99 µM | IC50 (HepG-2; [1]): 6.08 ± 1.04 µM | IC50 (A549; Homo sapiens): 38.1 ± 0.96 µM | melting point: 285.3 to 286.1 °C | IC50 (MCF-7; [2]): 57 ± 1.75 µM
